# Data published in ChEMBL document CHEMBL1909046, “DrugMatrix in vitro pharmacology data”.
# Key:
# [1] = biological target: Beta-1 adrenergic receptor (Homo sapiens, UniProt P08588); experiment: DRUGMATRIX: Adrenergic beta1 radioligand binding (ligand: [125I] Cyanopindolol); assay type: cell membranes, CHO-K1, Membrane; details: cho-k1; Not Active = under 50% inhibition at 10 µM
# [2] = DRUGMATRIX: ATPase, Na+/K+ enzyme inhibition (substrate: ATP); assay type: tissue-based, Sus scrofa, Heart; details: Not Active = under 50% inhibition at 10 µM
# [3] = DRUGMATRIX: Calcium Channel Type L, Phenylalkylamine radioligand binding (ligand: [3H] (-)-Desmethoxyverapamil (D-888)); assay type: cell membranes, Rattus norvegicus, Wistar, Brain, Membrane; details: Not Active = under 50% inhibition at 10 µM
# [4] = DRUGMATRIX: Glutamate, NMDA, Phencyclidine radioligand binding (ligand: [3H] TCP); assay type: cell membranes, Rattus norvegicus, Wistar, Cerebral cortex, Membrane; details: Not Active = under 50% inhibition at 10 µM
# [5] = DRUGMATRIX: Interleukin IL-1 radioligand binding (ligand: [125I] interleukin 1beta); assay type: cell membranes, Membrane; details: nih3t3; Not Active = under 50% inhibition at 10 µM
# Mu-type opioid receptor = Mu-type opioid receptor (Homo sapiens, UniProt P35372); experiment: DRUGMATRIX: Opiate mu (OP3, MOP) radioligand binding (ligand: [3H] Diprenorphine); assay type: cell membranes, CHO-K1, Membrane; details: Not Active = under 50% inhibition at 10 µM
# [6] = DRUGMATRIX: Glutamate, NMDA, Agonism radioligand binding (ligand: [3H] CGP-39653); assay type: cell membranes, Rattus norvegicus, Wistar, Cerebral cortex, Membrane; details: Not Active = under 50% inhibition at 10 µM
# Glucocorticoid receptor = biological target: T1, Glucocorticoid receptor (Homo sapiens, UniProt P04150); details: hela s3; further: in other assays of this panel Not Active means under 50% inhibition at 10 µM
# T1 sequence (P04150 whole entry): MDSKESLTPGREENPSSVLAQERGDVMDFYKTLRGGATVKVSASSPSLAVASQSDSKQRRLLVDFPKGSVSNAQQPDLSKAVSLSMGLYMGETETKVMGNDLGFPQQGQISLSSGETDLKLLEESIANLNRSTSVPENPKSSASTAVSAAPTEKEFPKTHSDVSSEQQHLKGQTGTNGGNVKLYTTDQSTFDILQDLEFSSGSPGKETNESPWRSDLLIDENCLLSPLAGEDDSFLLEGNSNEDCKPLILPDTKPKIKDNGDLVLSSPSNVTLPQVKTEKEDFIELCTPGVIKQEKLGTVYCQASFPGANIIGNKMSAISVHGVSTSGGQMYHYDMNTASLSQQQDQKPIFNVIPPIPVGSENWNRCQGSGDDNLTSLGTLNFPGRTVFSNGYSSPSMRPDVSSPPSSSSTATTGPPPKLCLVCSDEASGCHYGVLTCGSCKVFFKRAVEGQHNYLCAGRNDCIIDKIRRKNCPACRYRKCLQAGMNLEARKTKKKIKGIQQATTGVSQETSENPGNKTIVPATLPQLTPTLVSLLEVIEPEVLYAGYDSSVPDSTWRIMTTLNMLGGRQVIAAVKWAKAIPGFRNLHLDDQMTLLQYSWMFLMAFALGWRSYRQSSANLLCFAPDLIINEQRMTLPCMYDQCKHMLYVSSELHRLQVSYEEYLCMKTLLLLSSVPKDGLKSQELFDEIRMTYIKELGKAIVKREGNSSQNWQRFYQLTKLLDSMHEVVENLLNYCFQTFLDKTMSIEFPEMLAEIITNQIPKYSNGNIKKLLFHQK
# Beta-1 adrenergic receptor, sequence (P08588 whole entry): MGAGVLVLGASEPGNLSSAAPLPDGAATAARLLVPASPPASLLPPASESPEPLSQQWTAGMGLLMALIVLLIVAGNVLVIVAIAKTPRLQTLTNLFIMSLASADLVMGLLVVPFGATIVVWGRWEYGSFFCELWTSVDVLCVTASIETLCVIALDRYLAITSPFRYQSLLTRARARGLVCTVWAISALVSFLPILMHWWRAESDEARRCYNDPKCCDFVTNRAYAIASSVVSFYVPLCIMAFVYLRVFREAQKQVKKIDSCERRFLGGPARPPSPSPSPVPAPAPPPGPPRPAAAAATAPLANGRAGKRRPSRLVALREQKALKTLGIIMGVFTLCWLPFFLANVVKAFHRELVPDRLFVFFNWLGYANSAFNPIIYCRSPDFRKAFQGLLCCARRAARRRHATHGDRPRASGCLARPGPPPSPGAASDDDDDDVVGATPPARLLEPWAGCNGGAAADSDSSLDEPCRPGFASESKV
# Mu-type opioid receptor, sequence (P35372 whole entry): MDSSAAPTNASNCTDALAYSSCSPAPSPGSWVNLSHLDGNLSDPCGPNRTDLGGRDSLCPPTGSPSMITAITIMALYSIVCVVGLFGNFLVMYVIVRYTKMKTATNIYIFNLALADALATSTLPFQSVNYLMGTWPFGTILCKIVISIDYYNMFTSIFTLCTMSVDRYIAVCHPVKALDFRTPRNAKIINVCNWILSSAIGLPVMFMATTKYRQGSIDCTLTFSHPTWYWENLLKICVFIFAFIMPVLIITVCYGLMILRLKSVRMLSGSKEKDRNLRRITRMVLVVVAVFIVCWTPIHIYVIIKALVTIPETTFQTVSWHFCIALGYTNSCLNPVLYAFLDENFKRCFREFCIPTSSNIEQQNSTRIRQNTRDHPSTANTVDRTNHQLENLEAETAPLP
Compound,IC50 [1],IC50 [2],Ki [2],IC50 [3],Ki [3],IC50 [4],Ki [4],IC50 [5],Ki [5],IC50 (Mu-type opioid receptor; cho-k1),IC50 [6],Ki [6],IC50 (Glucocorticoid receptor),Ki (Mu-type opioid receptor) [nM],IC50 (Mu-type opioid receptor; read-out: IC50) [nM],IC50 ([3]; read-out: IC50) [nM],Ki ([3]; read-out: Ki) [nM],Ki [1],Ki (Glucocorticoid receptor)
CC(=N)S [THIOACETAMIDE],Not Active,Not Active,Not Active,Not Active,Not Active,Not Active,Not Active,Not Active,Not Active,Not Active,Not Active,Not Active,–,–,–,–,–,–,–
O=C1C[C@@H]2OCC=C3CN4CC[C@]56c7ccccc7N1[C@H]5[C@H]2[C@H]3C[C@H]46 [STRYCHNINE],–,Not Active,Not Active,Not Active,Not Active,Not Active,Not Active,Not Active,Not Active,–,Not Active,Not Active,–,–,–,–,–,–,–
Nc1ccc(S(=O)(=O)NC(=O)c2ccccc2)cc1 [SULFABENZAMIDE],Not Active,Not Active,Not Active,Not Active,Not Active,Not Active,Not Active,Not Active,Not Active,Not Active,Not Active,Not Active,Not Active,–,–,–,–,–,–
CC(=O)OCC(COC(C)=O)OC(C)=O [TRIACETIN],Not Active,Not Active,Not Active,Not Active,Not Active,Not Active,Not Active,Not Active,Not Active,Not Active,Not Active,Not Active,Not Active,–,–,–,–,–,–
CCCCC(=O)N(Cc1ccc(-c2ccccc2-c2nnn[nH]2)cc1)[C@H](C(=O)O)C(C)C,Not Active,Not Active,Not Active,Not Active,Not Active,Not Active,Not Active,Not Active,Not Active,Not Active,Not Active,Not Active,Not Active,–,–,–,–,–,–
OCCOCCN1CCN(C2=Nc3ccccc3Sc3ccccc32)CC1 [QUETIAPINE],Not Active,–,–,–,–,–,–,–,–,Not Active,–,–,–,–,–,–,–,–,–
CC1CCC(NC(=O)N(CCCl)N=O)CC1 (stereo unspecified) [SEMUSTINE],Not Active,Not Active,Not Active,Not Active,Not Active,Not Active,Not Active,Not Active,Not Active,Not Active,Not Active,Not Active,Not Active,–,–,–,–,–,–
Oc1ccc2c3c1O[C@H]1[C@@H](O)CC[C@@]4(O)[C@@H](C2)N(CC2CCC2)CC[C@]314 [NALBUPHINE],Not Active,–,–,–,–,–,–,–,–,–,–,–,Not Active,–,–,–,–,–,–
Clc1ccc(COC(Cn2ccnc2)c2ccc(Cl)cc2Cl)c(Cl)c1 (stereo unspecified) [MICONAZOLE],–,–,–,–,–,–,–,–,–,–,–,–,Not Active,2460,6060,–,–,–,–
"O=C(O)CCCCC1CCSS1 (stereo not drawn) [LIPOIC ACID, ALPHA]",Not Active,Not Active,Not Active,Not Active,Not Active,Not Active,Not Active,Not Active,Not Active,Not Active,Not Active,Not Active,Not Active,–,–,–,–,–,–
CCCCCCCCNC(C)C(O)c1ccc(SC(C)C)cc1 (stereo unspecified) [SULOCTIDIL],–,Not Active,Not Active,–,–,Not Active,Not Active,–,–,Not Active,Not Active,Not Active,Not Active,–,–,525,510,–,–
COC(=O)[C@H]1[C@H]2C[C@@H]3c4[nH]c5cc(OC)ccc5c4CCN3C[C@H]2C[C@@H](OC(=O)c2cc(OC)c(OC)c(OC)c2)[C@@H]1OC [RESERPINE],Not Active,Not Active,Not Active,–,–,Not Active,Not Active,Not Active,Not Active,–,Not Active,Not Active,Not Active,1690,4150,2050,1990,–,–
O=c1[nH]c(=O)n(C2CCCO2)cc1F (stereo unspecified) [TEGAFUR],Not Active,Not Active,Not Active,Not Active,Not Active,Not Active,Not Active,Not Active,Not Active,Not Active,Not Active,Not Active,–,–,–,–,–,–,–
CC(C)NC[C@H](O)COc1cccc2ccccc12 [LEVOPROPRANOLOL],–,–,–,–,–,–,–,–,–,Not Active,–,–,–,–,–,–,–,–,–
CN1[C@@H]2CC[C@H]1C[C@@H](OC(c1ccccc1)c1ccccc1)C2 [BENZTROPINE],–,–,–,–,–,–,–,–,–,Not Active,–,–,Not Active,–,–,–,–,–,–
Cc1ccc(C(=O)c2ccc(CC(=O)O)n2C)cc1 [TOLMETIN],Not Active,Not Active,Not Active,Not Active,Not Active,Not Active,Not Active,Not Active,Not Active,Not Active,Not Active,Not Active,–,–,–,–,–,–,–
C[S+]([O-])c1ccc(-c2nc(-c3ccncc3)c(-c3ccc(F)cc3)[nH]2)cc1 (stereo unspecified) [SB-203580],Not Active,–,–,–,–,–,–,–,–,Not Active,–,–,Not Active,–,–,–,–,–,–
CN1CCN(C2=Nc3cc(Cl)ccc3Nc3ccccc32)CC1 [CLOZAPINE],Not Active,–,–,–,–,–,–,–,–,Not Active,–,–,Not Active,–,–,–,–,–,–
C[C@]12C=CC(=O)C=C1CC[C@@H]1[C@@H]2C(=O)C[C@@]2(C)[C@H]1CC[C@]2(O)C(=O)CO [PREDNISONE],Not Active,Not Active,Not Active,Not Active,Not Active,Not Active,Not Active,Not Active,Not Active,Not Active,Not Active,Not Active,–,–,–,–,–,–,–
CC(C)NC[C@@H](O)COc1cccc2ccccc12 [DEXPROPRANOLOL],–,–,–,–,–,–,–,–,–,Not Active,–,–,–,–,–,–,–,–,–
CN1CCN(CCCN2c3ccccc3Sc3ccc(C(F)(F)F)cc32)CC1 [TRIFLUOPERAZINE],Not Active,Not Active,Not Active,Not Active,Not Active,Not Active,Not Active,Not Active,Not Active,Not Active,Not Active,Not Active,Not Active,–,–,–,–,–,–
O=C(O)COc1ccc(C(=O)c2cccs2)c(Cl)c1Cl,Not Active,Not Active,Not Active,Not Active,Not Active,Not Active,Not Active,Not Active,Not Active,Not Active,Not Active,Not Active,Not Active,–,–,–,–,–,–
TRANSPLATIN,Not Active,Not Active,Not Active,Not Active,Not Active,Not Active,Not Active,Not Active,Not Active,–,Not Active,Not Active,Not Active,–,–,–,–,Not Active,Not Active
C[C@@](Cc1ccc(O)c(O)c1)(NN)C(=O)O.O [CARBIDOPA],Not Active,Not Active,Not Active,Not Active,Not Active,Not Active,Not Active,Not Active,Not Active,Not Active,Not Active,Not Active,–,–,–,–,–,–,–
ZIRCONIUM(IV) CHLORIDE,Not Active,Not Active,Not Active,Not Active,Not Active,Not Active,Not Active,Not Active,Not Active,–,Not Active,Not Active,Not Active,–,–,–,–,Not Active,Not Active
CN(C)C(=O)C(CCN1CCC(O)(c2ccc(Cl)cc2)CC1)(c1ccccc1)c1ccccc1 [LOPERAMIDE],–,–,–,–,–,–,–,–,–,–,–,–,Not Active,–,–,–,–,–,–
O=C(O)c1ccccc1O [SALICYLIC ACID],–,Not Active,Not Active,Not Active,Not Active,Not Active,Not Active,Not Active,Not Active,–,Not Active,Not Active,–,–,–,–,–,–,–
